Test results published in ChEMBL document CHEMBL6109086, “Discovery and biological evaluation of hederagenin derivatives as non-substrate inhibitors of P-glycoprotein-mediated multidrug resistance” (Eur J Med Chem, 2025).
The source made the active and inactive calls. The calls are words filed in the database; no cut-off is given here.

Key:
[1] = Drug accumulation in human KBV cells expressing p-glycoprotein at 10 uM measured after 4 hrs by UPLC-MS analysis; format: ADME, cell-based
[2] = Sensitization of vincristine -induced cytotoxicity against human KBV cells assessed as fold change in vincristine IC50 at 5 uM incubated for 72 hrs by MTT assay relative to vincristine alone; format: functional
[3] = Sensitization of vincristine -induced cytotoxicity against human KBV cells assessed as fold change in vincristine IC50 at 2.5 uM incubated for 72 hrs by MTT assay relative to vincristine alone; format: functional
[4] = Sensitization of paclitaxel-induced cytotoxicity against human KBV cells assessed as fold change in paclitaxel IC50 at 10 uM incubated for 72 hrs by MTT assay relative to paclitaxel alone; format: functional
[5] = Aqueous solubility of the compound in deionized water measured after 24 hrs by UV-vis spectrophotometric analysis; format: physicochemical; conditions: buffer
KBV [6] = test: Induction of Rh123 accumulation in human KBV cells at 10 uM incubated for 150 mins by flow cytometry analysis; format: functional, cell-based
KBV [7] = test: Anti-tumor activity against human KBV cells xenografted in male BALB/c nude mouse assessed as reduction in tumor volume at 10 mg/kg administered once daily for 18 days; format: functional, organism-based; conditions: time 18.0 day
[8] = Sensitization of paclitaxel-induced cytotoxicity against human KBV cells assessed as fold change in paclitaxel IC50 at 5 uM incubated for 72 hrs by MTT assay relative to paclitaxel alone; format: functional
KBv200 = test: Effect on p-glycoprotein expression level in human KBv200 cells at 2.5 to 10 uM measured after 4 hrs by Western blot analysis; format: functional, cell-based; conditions: dose 2.5-10 µM
[9] = target: ATP-dependent translocase ABCB1 (Homo sapiens, UniProt P08183); test: Induction of thermal stabilization of p-glycoprotein in human KBV cells at 50 uM pre-treated with cells for 24 hrs and measured after 2 hrs by CESTA; format: cell-based; conditions: 26 h
ATP-dependent translocase ABCB1, sequence (P08183 whole entry): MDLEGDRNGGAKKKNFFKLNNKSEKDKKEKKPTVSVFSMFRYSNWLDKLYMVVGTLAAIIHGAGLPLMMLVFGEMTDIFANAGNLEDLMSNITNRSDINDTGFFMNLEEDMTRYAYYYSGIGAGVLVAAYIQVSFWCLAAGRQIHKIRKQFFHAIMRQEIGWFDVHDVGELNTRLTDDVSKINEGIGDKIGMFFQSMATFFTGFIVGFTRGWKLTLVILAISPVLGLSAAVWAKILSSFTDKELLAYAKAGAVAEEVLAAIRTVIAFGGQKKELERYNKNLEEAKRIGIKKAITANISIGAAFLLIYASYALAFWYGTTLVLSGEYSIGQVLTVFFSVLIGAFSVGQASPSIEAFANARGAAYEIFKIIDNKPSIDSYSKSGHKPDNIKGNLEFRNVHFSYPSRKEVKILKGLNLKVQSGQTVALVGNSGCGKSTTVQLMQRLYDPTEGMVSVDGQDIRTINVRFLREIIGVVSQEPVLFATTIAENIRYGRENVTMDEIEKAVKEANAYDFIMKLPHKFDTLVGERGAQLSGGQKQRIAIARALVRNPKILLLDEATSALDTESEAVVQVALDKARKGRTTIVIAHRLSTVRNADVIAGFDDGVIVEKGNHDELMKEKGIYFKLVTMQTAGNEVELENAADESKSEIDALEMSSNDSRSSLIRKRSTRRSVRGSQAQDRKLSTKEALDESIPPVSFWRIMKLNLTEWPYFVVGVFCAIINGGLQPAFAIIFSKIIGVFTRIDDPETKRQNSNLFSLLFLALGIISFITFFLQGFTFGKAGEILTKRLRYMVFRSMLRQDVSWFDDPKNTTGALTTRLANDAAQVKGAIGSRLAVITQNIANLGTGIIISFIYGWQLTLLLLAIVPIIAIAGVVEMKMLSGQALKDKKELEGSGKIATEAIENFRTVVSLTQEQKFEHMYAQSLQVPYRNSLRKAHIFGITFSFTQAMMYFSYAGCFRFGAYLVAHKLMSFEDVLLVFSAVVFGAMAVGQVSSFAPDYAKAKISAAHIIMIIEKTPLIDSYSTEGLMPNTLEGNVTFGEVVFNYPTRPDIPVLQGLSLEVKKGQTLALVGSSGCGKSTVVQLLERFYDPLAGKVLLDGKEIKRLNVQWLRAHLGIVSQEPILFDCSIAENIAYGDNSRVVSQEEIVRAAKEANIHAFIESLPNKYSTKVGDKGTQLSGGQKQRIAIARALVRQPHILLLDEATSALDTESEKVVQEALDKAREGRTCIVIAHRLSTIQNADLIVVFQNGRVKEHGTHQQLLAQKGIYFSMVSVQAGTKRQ

KBV [10] = test: Induction of apoptosis in human KBV cells in presence of paclitaxel incubated for 24 hrs by PI staining based flow cytometry analysis; format: functional, cell-based; conditions: dose 2.5-10 µM
KBV [11] = test: Induction of cell cycle arrest in human KBV cells assessed as accumulation of cells at G2/M phase in presence of paclitaxel incubated for 24 hrs by PI staining based flow cytometry analysis; format: functional; conditions: dose 2.5-10 µM
KBV [12] = test: Induction of cell cycle arrest in human KBV cells assessed as accumulation of cells at G2/M phase at 10 uM in presence of paclitaxel incubated for 24 hrs by PI staining based flow cytometry analysis; format: functional
[13] = Cytotoxicity against human KBV cells assessed as paclitaxel induced cytotoxicity by measuring cell survival at 10 uM measured after 72 hrs by MTT assay relative to control; format: functional
[14] = Sensitization of vincristine -induced cytotoxicity against human KBV cells assessed as fold change in vincristine IC50 at 10 uM incubated for 72 hrs by MTT assay relative to vincristine alone; format: functional
[15] = Drug accumulation in human KB cells […] at 10 uM measured after 4 hrs by UPLC-MS analysis; format: ADME, cell-based
[16] = Reversal of multi-drug resistance in human KBV cells assessed as paclitaxel induced cytotoxicity by measuring cell survival at 10 uM measured after 72 hrs by MTT assay relative to control; format: functional
KBV [17] = test: Induction of cell cycle arrest in human KBV cells assessed as accumulation of cells at G2/M phase at 10 uM incubated for 24 hrs by PI staining based flow cytometry analysis; format: functional
[18] = Sensitization of paclitaxel-induced cytotoxicity against human KBV cells assessed as fold change in paclitaxel IC50 at 2.5 uM incubated for 72 hrs by MTT assay relative to paclitaxel alone; format: functional

Drug uptake [1]: Active | solubility [5]: soluble | Activity [9]: Active | Drug uptake [15]: Active
SMILES: CC1(C)CC[C@]2(C(=O)NCCCC(=O)OCCOCCOCCOCCOCCOCCO)CC[C@]3(C)C(=CC[C@@H]4[C@@]5(C)Cc6nccnc6[C@@](C)(CO)[C@@H]5CC[C@]43C)[C@@H]2C1
fold change (FC) [2]: 6.09 | fold change (FC) [3]: 2.43 | fold change (FC) [4]: 103.51 | Activity (KBV [6]): Active | Activity (KBV [7]): inactive | fold change (FC) [8]: 6.12 | Activity (KBv200): inactive | Activity (KBV [10]): Dose-dependent-effect | Activity (KBV [11]): Dose-dependent-effect | Activity (KBV [12]): Active | Activity [13]: 86% | fold change (FC) [14]: 14.41 | Activity [16]: 17.01% | Activity (KBV [17]): inactive | fold change (FC) [18]: 2.72
